Source: PMC12040169 (PLOS Biology, 2025)

Assay: in vitro
Conditions: human, hela cells, % viability

SMILES | viability at 28.5 h, 10 µM [%]
Cn1cc(-c2nc(C3COCCN3Cc3ccc(F)cc3)no2)cn1 (stereo not shown) [CBK305391] | 97.7
CCn1c(C(C)NC2CCN(CC(=O)OC)CC2)nc2ccccc21 (stereo not shown) [CBK305396] | 97.9
COc1cccc(NC(=O)N(CCCO)C2CCc3ccccc32)c1 (stereo not shown) [CBK305397] | 95
CCn1cc(CN2CCCN(C(=O)c3cc(C4CC4)on3)CC2)cn1 [CBK305401] | 88.1
CN(Cc1cnn(C)c1)C(=O)c1ccc(Cl)cc1Br [CBK305404] | 93
CC(=O)NC(CC(=O)N1CCCC(n2cccn2)C1)c1cccs1 (stereo not shown) [CBK305405] | 94.6
CCCc1[nH]ncc1C(=O)N1CCN(c2ccnc(N(C)C)n2)CC1 [CBK305406] | 96.4
CCOC(=O)c1csc(C2CCCN2C(=O)CC2C=CCCC2)n1 (stereo not shown) [CBK305407] | 97.8
Cn1cc(CCNC(=O)Nc2ccc(CN3CCCC3=O)cc2)cn1 [CBK305410] | 107
CN(C(=O)CN1CCCCC1Cn1cccn1)C1(C#N)CCCCC1 (stereo not shown) [CBK305412] | 90.1
CCOC(=O)N1CCN(Cc2ccc(OCc3nccn3C)cc2)CC1 [CBK305413] | 94
Cc1nc(CN2C(=O)CC(Cc3cnn(C)c3)C2=O)nc2ccccc12 (stereo not shown) [CBK305415] | 105
COCCc1nsc(N2CCC(Oc3cccnc3N(C)C)C2)n1 (stereo not shown) [CBK305418] | 98.8
CCn1cc(C2CN(S(=O)(=O)c3sc(C)nc3C)CCO2)cn1 (stereo not shown) [CBK305420] | 96.8
Cn1cc(C(=O)N2CCOCC2c2nc(-c3cccs3)no2)cn1 (stereo not shown) [CBK305422] | 113
CCCCNc1cc(N2CCOC(c3cnn(CC)c3)C2)nc(N)n1 (stereo not shown) [CBK305423] | 93.8
Cc1cccc(OCC(=O)NCC(c2cccs2)N2CCOCC2)c1 (stereo not shown) [CBK305426] | 90.1
CC(C)NC(=O)CN1CCC(N(C)Cc2cccc(C(F)(F)F)c2)CC1 [CBK305429] | 95
C#CCNS(=O)(=O)c1cccc(C(=O)NC2CCOc3ccccc32)c1 (stereo not shown) [CBK305430] | 111
Cc1ccc(Cl)c(OC(C)C(=O)N(CCCO)Cc2ccncc2)c1 (stereo not shown) [CBK305432] | 109
CC1c2ccsc2CCN1C(=O)COc1cccc(Br)c1 (stereo not shown) [CBK305434] | 91.9
CC(Oc1cccc(C#N)c1)C(=O)N1CCCC1C(=O)NCC(F)(F)F (stereo not shown) [CBK305435] | 93.8
CC(C)c1nc(CC(=O)NCCC(=O)N2CCCc3ccccc32)cs1 [CBK305437] | 98.1

SMILES | viability at 28.5 h, 10 µM [%]
Cc1nc(CCNC(=O)c2nn(-c3cccc(C(C)C)c3)cc2O)cs1 [CBK305438] | 109
CC(C)OC(=O)Cc1nc(CN2CCOC(c3ccc(F)cc3)C2)cs1 (stereo not shown) [CBK305439] | 119
Cn1cc(-c2nc(C3COCCN3Cc3c(F)cccc3Cl)no2)cn1 (stereo not shown) [CBK305441] | 79.4
Cn1cc(-c2nc(C3COCCN3C(=O)c3cccc(Cl)c3)no2)cn1 (stereo not shown) [CBK305443] | 80.1
CS(=O)(=O)Nc1c[nH]nc1C1CCCN(c2cccc(F)c2C#N)C1 (stereo not shown) [CBK305444] | 95.2
O=C(NCCCn1cccn1)N1CCCN(Cc2ccc(Cl)cc2)CC1 [CBK305447] | 116
CCOC(=O)c1csc(C2CCCN2C(=O)CCc2ccccc2O)n1 (stereo not shown) [CBK305448] | 109
COCCn1ccc(NC(=O)N2CCCC(c3cc(F)ccc3F)C2)n1 (stereo not shown) [CBK305451] | 79.6
COC(C)c1nc(C)c(C(=O)NC2CCCN(c3ccn(C)n3)C2=O)s1 (stereo not shown) [CBK305454] | 100
CC(C)(C)OC(=O)N1CCCC(C(=O)NC(CO)Cc2ccccn2)C1 (stereo not shown) [CBK305458] | 88.4
Cc1c(C(=O)N2CCNC(=O)C2(C)C)nnn1Cc1ccc(F)cc1F [CBK305461] | 80.2
CN(c1cccc(C#N)c1)C1CCN(c2nc3c(cnn3C)c(=O)[nH]2)C1 (stereo not shown) [CBK305462] | 91.8
Cc1ncsc1C(=O)N1CCNCC1c1cccc(F)c1 (stereo not shown) [CBK305463] | 93.1
Cc1cc(C(C)NC(=O)C2CCCN(S(C)(=O)=O)C2)c(C)s1 (stereo not shown) [CBK305464] | 98.4
CN(CCC1CCN(c2ccncc2)CC1)C(=O)c1cc2sccc2[nH]1 [CBK305468] | 93.3
Cc1ccc(C)c(CC(=O)N(CCC(=O)O)C2CCOCC2)c1 [CBK305469] | 92.3
CC(C)NC(=O)CN1CCN(c2ccc(C#N)cc2Cl)CC1 [CBK305470] | 88.3
Cn1cc(N2CCN(C(=O)CCOc3ccccc3)CC2)cn1 [CBK305473] | 102
O=C(CN1CCC(C(O)C(=O)NC2CC2)CC1)Nc1cc(Cl)ccc1F (stereo not shown) [CBK305477] | 93.4
N#Cc1ccc(S(=O)(=O)N2CCC(OCc3ccncc3)C2)cn1 (stereo not shown) [CBK305478] | 91
COc1ccc2[nH]cc(C3CCN(C(=O)c4cc(C#N)c[nH]4)CC3)c2c1 [CBK305479] | 93.2
Cn1cc(C(=O)CCC(=O)NC2CCCN(c3ncccn3)C2)cn1 (stereo not shown) [CBK305480] | 94.1
O=C(c1ncc(F)cc1F)N1CCCCC1CN1CCOCC1 (stereo not shown) [CBK305482] | 102

SMILES | viability at 28.5 h, 10 µM [%]
Cc1ncc(S(=O)(=O)N2CCC(OCc3ccncc3)C2)s1 (stereo not shown) [CBK305483] | 99.5
COC(=O)c1cc(C(=O)Nc2ccc(OCCC(N)=O)cc2)c[nH]1 [CBK305486] | 103
COCC1CCN(C(=O)Nc2ccc(F)c(N3CCCNC3=O)c2)C1 (stereo not shown) [CBK305487] | 100
CN(C(=O)CCn1c(=O)oc2cc(Cl)ccc21)C1(C(N)=O)CCCC1 [CBK305493] | 89.1
Cc1csc(S(=O)(=O)Cc2nnc(C)n2C2CC2)n1 [CBK305494] | 98.4
Cn1cncc1CN1CCNC(=O)C1c1ccccc1C(F)(F)F (stereo not shown) [CBK305495] | 98
Brc1ccc(C2(c3nnc(C4CC4)o3)CCOCC2)cc1 [CBK305498] | 98.2
CC(C)(C)OC(=O)C1(NC(=O)Cc2cn3ccccc3n2)CCCC1 [CBK305500] | 95.9
Cc1nn(C)c(C)c1C1CCCN1CC(=O)NCc1ccccn1 (stereo not shown) [CBK305501] | 94.9
Cc1cc(NC(=O)CN2CCN(Cc3ccc(Cl)nc3)CC2)no1 [CBK305504] | 104
Cc1c(C(=O)N2CCN(C3CC3)CC2)nnn1Cc1ccc(F)cc1F [CBK305507] | 97.1
Cc1cccn2c(=O)cc(CN3CCc4nn(C)c(=O)cc4C3)nc12 [CBK305514] | 98.2
CCNC(=O)CN1CCN(c2nc(C(F)(F)F)ccc2C#N)CC1 [CBK305515] | 86.4
CCCC(=O)Nc1ccc(OCc2ncc(C(C)C)o2)c(C(C)=O)c1 [CBK305516] | 100
CC(=O)c1cccc(NC(=O)N(CCO)C2CCc3ccccc32)c1 (stereo not shown) [CBK305517] | 93.4
Cc1cccn2c(=O)cc(CN3CCC(n4ccnc4)CC3)nc12 [CBK305519] | 92.3
CNC(=O)c1ccc(NC(=O)N2CCCCC2c2ccnn2C)cc1 (stereo not shown) [CBK305521] | 112
Cc1nnsc1C(=O)Nc1ncn(CC(=O)N2CCCCCC2)n1 [CBK305522] | 96.9
COc1ccc(Cl)cc1C1(CNC(=O)C2CCC(N)C2)CCOCC1 (stereo not shown) [CBK305523] | 85.9
O=C(O)c1ccc(C(=O)NC2CCN(CC(F)(F)F)C2=O)s1 (stereo not shown) [CBK305524] | 95.4
CC(=O)Nc1cccc(CN2CCCC(CO)C2)c1 (stereo not shown) [CBK305527] | 91.9
Cc1nnnn1-c1cc(NC(=O)NCC2CCCO2)ccc1F (stereo not shown) [CBK305528] | 105
Cc1c(C(=O)N2CCS(=O)(=O)CC2)nnn1-c1ccc2ncccc2c1 [CBK305529] | 112

SMILES | viability at 28.5 h, 10 µM [%]
CN(C(=O)C1(C)CCOCC1)c1nc2c(s1)CC(c1ccccc1)CC2 (stereo not shown) [CBK305531] | 82.8
O=C1NC(=O)C2(CCN(C(=O)c3csc4c3CCCC4)C2)N1 (stereo not shown) [CBK305533] | 89.8
CC(C)Cc1nc(C(=O)N2CCC3(C2)NC(=O)NC3=O)cs1 (stereo not shown) [CBK305534] | 91.8
CC(C)N(C)CC(=O)N(C)c1nc2c(s1)CC(c1ccccc1)CC2 (stereo not shown) [CBK305535] | 93.7
Cn1cc(CNS(=O)(=O)c2ccc(Br)c(F)c2)cn1 [CBK305539] | 87.7
CC1CCC(N(Cc2nnc(C3CCC3)n2C)CC2CCCO2)CC1 (stereo not shown) [CBK305540] | 97.3
O=C(c1ccc2cc[nH]c2c1)N1CCN(CC2CCOC2)CC1 (stereo not shown) [CBK305541] | 99.2
CC(C)n1nnnc1-c1ccccc1NS(=O)(=O)c1cn[nH]c1 [CBK305542] | 88.6
O=C(NC1CC(=O)N(CC(F)(F)F)C1)c1cnc(-c2ccncc2)s1 (stereo not shown) [CBK305546] | 78
CCOc1cc(NC2CCN(C(=O)C3CCCC(C)(C)C3)CC2)ncn1 (stereo not shown) [CBK305547] | 80.9
Cc1nnc(CN(CC2CCCO2)C2CCC(C)CC2)n1C (stereo not shown) [CBK305548] | 95.2
O=C(c1c[nH]nc1-c1cc2ccccc2o1)N1CCC(O)(C(F)(F)F)C1 (stereo not shown) [CBK305549] | 90.7
CCC(=O)N1CCC(NC(=O)c2cnc(-c3ccncc3)s2)C1 (stereo not shown) [CBK305550] | 94.6
COc1ccc(-n2nnc(C(=O)N3CCCCC3C(N)=O)c2C)cc1 (stereo not shown) [CBK305551] | 98.1
Cc1ccc2c(c1)nc(CNC(=O)NCCc1nc(C)no1)n2C [CBK305552] | 98.8
Cc1ccc2c(c1)nc(CNC(=O)NC1CCCc3cn[nH]c31)n2C (stereo not shown) [CBK305554] | 77.5
CC1(O)CCCN(C(=O)c2c[nH]nc2-c2cc3ccccc3o2)C1 (stereo not shown) [CBK305555] | 88.3
CCS(=O)(=O)N1CCc2cc(-c3csc(-c4cnn(C)c4)n3)ccc21 [CBK305560] | 93.7
Cc1ccc(Cl)cc1NC(=O)C1CC(=O)N(Cc2ccccn2)C1 (stereo not shown) [CBK305561] | 101
Cc1cc(NC(=O)CN(C)C(=O)Cc2cccc(C(F)(F)F)c2)no1 [CBK305564] | 80.5
O=C1NC2(CCCC2)C(=O)N1Cc1cnn(-c2ccccc2)n1 [CBK305568] | 103
Cc1oc(NC(=O)CN2CCN(c3ncccn3)CC2)c(C#N)c1C [CBK305569] | 94.6
